Experimental data reported in patent US9688710B2, “Inhibitors of sodium glucose cotransporter 1” (LEXICON PHARMACEUTICALS, INC., priority 2012, dated 2017).

Experiments:
[1] = target: Human sodium/glucose co-transporter type 2 (SGLT2) (Homo sapiens (Human), UniProt P31639); experiment: In vitro human SGLT2 inhibition assay (14C-AMG uptake); assay type: cell-based; details: HEK293 cells expressing human HA-SGLT2, 14C-AMG uptake
Method in brief: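 Uptake of 14C-AMG (100 nCi) was followed in a stable HEK293 HA-SGLT2 line over 1-2 h at 37 °C with or without compound. Buffer: 140 mM NaCl, 10 mM HEPES, 5 mM Tris, 1 mg/mL BSA, pH 7.3. Readout was scintillation counting after washing.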

[2] = target: Human sodium/glucose co-transporter type 1 (SGLT1) (Homo sapiens (Human), UniProt P13866); experiment: In vitro human SGLT1 inhibition assay (14C-AMG uptake); assay type: cell-based; details: HEK293 cells expressing human HA-SGLT1, 14C-AMG uptake
Human sodium/glucose co-transporter type 1 (SGLT1), sequence (P13866 whole entry): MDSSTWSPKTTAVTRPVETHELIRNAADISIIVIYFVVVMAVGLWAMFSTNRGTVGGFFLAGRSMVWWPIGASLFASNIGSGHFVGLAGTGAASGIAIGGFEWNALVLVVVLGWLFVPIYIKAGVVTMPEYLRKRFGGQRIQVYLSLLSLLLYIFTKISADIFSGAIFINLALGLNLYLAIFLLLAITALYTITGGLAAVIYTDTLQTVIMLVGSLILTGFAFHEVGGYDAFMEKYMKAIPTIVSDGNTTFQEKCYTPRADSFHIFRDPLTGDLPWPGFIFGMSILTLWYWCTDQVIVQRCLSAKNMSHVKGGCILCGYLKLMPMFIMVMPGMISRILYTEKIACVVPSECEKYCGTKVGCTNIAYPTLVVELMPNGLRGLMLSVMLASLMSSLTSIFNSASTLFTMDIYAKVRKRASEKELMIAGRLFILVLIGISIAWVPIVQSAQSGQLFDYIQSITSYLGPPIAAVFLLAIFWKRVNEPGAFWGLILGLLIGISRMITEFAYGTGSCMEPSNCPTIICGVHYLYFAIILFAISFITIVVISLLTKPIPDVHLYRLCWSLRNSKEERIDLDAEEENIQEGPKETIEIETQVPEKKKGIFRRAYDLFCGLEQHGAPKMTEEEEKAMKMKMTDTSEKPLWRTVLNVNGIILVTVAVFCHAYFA
Method in brief: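 Uptake of 14C-AMG (100 nCi) was measured by scintillation counting after 1–2 h at 37 °C, 5% CO2, with or without compound. The buffer was pH 7.3 with 140 mM NaCl, 1 mM CaCl2, 1 mM MgCl2 and 1 mg/mL BSA. Cells were a stable HEK293 line carrying HA-SGLT1 (human), plated overnight at 30,000 per well.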

Human sodium/glucose co-transporter type 2 (SGLT2), sequence (P31639 whole entry): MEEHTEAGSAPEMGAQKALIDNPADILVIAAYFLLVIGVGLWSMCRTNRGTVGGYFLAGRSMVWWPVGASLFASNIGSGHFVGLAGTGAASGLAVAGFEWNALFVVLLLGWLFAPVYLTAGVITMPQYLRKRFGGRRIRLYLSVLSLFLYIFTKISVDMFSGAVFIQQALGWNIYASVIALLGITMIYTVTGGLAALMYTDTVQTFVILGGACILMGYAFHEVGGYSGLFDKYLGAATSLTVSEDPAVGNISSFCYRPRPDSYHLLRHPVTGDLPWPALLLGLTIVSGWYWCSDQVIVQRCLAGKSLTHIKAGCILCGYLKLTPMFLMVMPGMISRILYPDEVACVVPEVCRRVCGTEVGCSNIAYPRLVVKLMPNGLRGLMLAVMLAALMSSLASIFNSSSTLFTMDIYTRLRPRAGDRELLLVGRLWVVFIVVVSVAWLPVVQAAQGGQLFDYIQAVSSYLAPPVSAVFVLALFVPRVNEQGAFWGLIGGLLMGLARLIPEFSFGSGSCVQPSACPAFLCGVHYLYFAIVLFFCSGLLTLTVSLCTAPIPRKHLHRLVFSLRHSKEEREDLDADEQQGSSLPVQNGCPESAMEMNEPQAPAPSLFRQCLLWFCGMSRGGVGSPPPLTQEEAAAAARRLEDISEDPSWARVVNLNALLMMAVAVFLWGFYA

Row | Structure (SMILES) | IC50 [1] | IC50 [2]
1 | CS[C@H]1O[C@@H](c2ccc(C)c(Cc3ccc(OCC(=O)NC(CO)(CO)CO)cc3)c2)[C@H](O)[C@@H](O)[C@@H]1O [N-(1,3-dihydroxy-2-(hydroxymethyl)propan-2-yl)-2-(4-(2-methyl-5-((2S,3R,4R,5S,6R)-3,4,5-trihydroxy-6-(methylthio)tetrahydro-2H-pyran-2-yl)benzyl)phenoxy)acetamide] | < 10 nM | < 100 nM
2 | CS[C@H]1OC(c2ccc(C)c(Cc3ccc(OCCCNCC(C)(C)CO)cc3)c2)[C@H](O)[C@@H](O)[C@@H]1O (stereo partly drawn) [(3R,4R,5S,6R)-2-(3-(4-(3-((3-hydroxy-2,2-dimethylpropyl)amino)propoxy)benzyl)-4-methylphenyl)-6-(methylthio)tetrahydro-2H-pyran-3,4,5-triol] | < 10 nM | < 10 nM
3 | CS[C@H]1O[C@@H](c2ccc(C)c(Cc3ccc(/C=C/CC(C(=O)NC(C)(C)C(N)=O)C(=O)NC(C)(C)C(N)=O)cc3)c2)[C@H](O)[C@@H](O)[C@@H]1O [N1,N3-bis(1-amino-2-methyl-1-oxopropan-2-yl)-2-((E)-3-(4-(2-methyl-5-((2S,3R,4R,5S,6R)-3,4,5-trihydroxy-6-(methylthio)tetrahydro-2H-pyran-2-yl)benzyl)phenyl)allyl)malonamide] | < 10 nM | < 100 nM
4 | COCCOCCOc1ccc(Cc2cc([C@@H]3O[C@H](SC)[C@@H](O)[C@H](O)[C@H]3O)ccc2Cl)cc1 [(2S,3R,4R,5S,6R)-2-(4-chloro-3-(4-(2-(2-methoxyethoxy)ethoxy)benzyl)phenyl)-6-(methylthio)tetrahydro-2H-pyran-3,4,5-triol] | < 10 nM | < 100 nM
5 | CS[C@H]1O[C@@H](c2ccc(C)c(Cc3ccc(/C=C/CCC(=O)NC(C)(C)C(N)=O)cc3)c2)[C@H](O)[C@@H](O)[C@@H]1O [(E)-N-(1-amino-2-methyl-1-oxopropan-2-yl)-5-(4-(2-methyl-5-((2S,3R,4R,5S,6R)-3,4,5-trihydroxy-6-(methylthio)tetrahydro-2H-pyran-2-yl)benzyl)phenyl)pent-4-enamide] | < 10 nM | < 10 nM
6 | CS[C@H]1O[C@@H](c2ccc(C)c(Cc3ccc(OCCCC(=O)N4CCN(C)CC4)cc3)c2)[C@H](O)[C@@H](O)[C@@H]1O [4-(4-(2-methyl-5-((2S,3R,4R,5S,6R)-3,4,5-trihydroxy-6-(methylthio)tetrahydro-2H-pyran-2-yl)benzyl)phenoxy)-1-(4-methylpiperazin-1-yl)butan-1-one] | < 10 nM | < 100 nM
7 | CS[C@H]1O[C@@H](c2ccc(C)c(Cc3ccc(OCC(=O)NCC(C)(C)C(N)=O)cc3)c2)[C@H](O)[C@@H](O)[C@@H]1O [2,2-dimethyl-3-(2-(4-(2-methyl-5-((2S,3R,4R,5S,6R)-3,4,5-trihydroxy-6-(methylthio)tetrahydro-2H-pyran-2-yl)benzyl)phenoxy)acetamido)propanamide] | < 10 nM | < 100 nM
8 | CS[C@H]1O[C@@H](c2ccc(C)c(Cc3ccc(OCCCNCC(C)(C)C(N)=O)cc3)c2)[C@H](O)[C@@H](O)[C@@H]1O [2,2-dimethyl-3-((3-(4-(2-methyl-5-((2S,3R,4R,5S,6R)-3,4,5-trihydroxy-6-(methylthio)tetrahydro-2H-pyran-2-yl)benzyl)phenoxy)propyl)-amino)propanamide] | < 10 nM | < 10 nM
9 | CS[C@H]1O[C@@H](c2ccc(C)c(Cc3ccc(CCCc4nnnn4CC(=O)N4CCN(C)CC4)cc3)c2)[C@H](O)[C@@H](O)[C@@H]1O [2-(5-(3-(4-(2-methyl-5-((2S,3R,4R,5S,6R)-3,4,5-trihydroxy-6-(methylthio)tetrahydro-2H-pyran-2-yl)benzyl)phenyl)propyl)-1H-tetrazol-1-yl)-1-(4-methylpiperazin-1-yl)ethanone] | < 10 nM | < 10 nM
10 | CS[C@H]1O[C@@H](c2ccc(Cl)c(Cc3ccc(OCCCNC(=O)C(C)(C)CO)cc3)c2)[C@H](O)[C@@H](O)[C@@H]1O [N-(3-(4-(2-chloro-5-((2S,3R,4R,5S,6R)-3,4,5-trihydroxy-6-(methylthio)tetrahydro-2H-pyran-2-yl)benzyl)phenoxy)propyl)-3-hydroxy-2,2-dimethylpropanamide] | < 10 nM | < 100 nM
11 | CS[C@H]1O[C@@H](c2ccc(C)c(Cc3ccc(CCCC(=O)NC(CO)(CO)CO)cc3)c2)[C@H](O)[C@@H](O)[C@@H]1O [N-(1,3-dihydroxy-2-(hydroxymethyl)propan-2-yl)-4-(4-(2-methyl-5-((2S,3R,4R,5S,6R)-3,4,5-trihydroxy-6-(methylthio)tetrahydro-2H-pyran-2-yl)benzyl)phenyl)butanamide] | < 10 nM | < 10 nM
12 | CS[C@H]1O[C@@H](c2ccc(C)c(Cc3ccc(OCCCC(=O)NC4(C(=O)N5CCN(C)CC5)CCCC4)cc3)c2)[C@H](O)[C@@H](O)[C@@H]1O [4-(4-(2-methyl-5-((2S,3R,4R,5S,6R)-3,4,5-trihydroxy-6-(methylthio)tetrahydro-2H-pyran-2-yl)benzyl)phenoxy)-N-(1-(4-methylpiperazine-1-carbonyl)cyclopentyl)butanamide] | < 10 nM | < 10 nM

Next, values leading:

Row | IC50 [1] | IC50 [2] | Structure (SMILES)
13 | < 10 nM | < 10 nM | CS[C@H]1O[C@@H](c2ccc(C)c(Cc3ccc(CCCC(=O)NC(C)(C)C(=O)N4CCN(C(=O)OC(C)(C)C)CC4)cc3)c2)[C@H](O)[C@@H](O)[C@@H]1O [tert-butyl 4-(2-methyl-2-(4-(4-(2-methyl-5-((2S,3R,4R,5S,6R)-3,4,5-trihydroxy-6-(methylthio)tetrahydro-2H-pyran-2-yl)benzyl)phenyl)butanamido)propanoyl)piperazine-1-carboxylate]
14 | < 10 nM | < 10 nM | CCN(CC)CCOc1ccc(Cc2cc([C@@H]3O[C@H](SC)[C@@H](O)[C@H](O)[C@H]3O)ccc2Cl)cc1 [(2S,3R,4R,5S,6R)-2-(4-chloro-3-(4-(2-(diethylamino)ethoxy)benzyl)phenyl)-6-(methylthio)tetrahydro-2H-pyran-3,4,5-triol]
15 | < 10 nM | < 10 nM | CS[C@H]1O[C@@H](c2ccc(C)c(Cc3ccc(CCCC(=O)NC(C)(C)C(=O)N4CCNCC4)cc3)c2)[C@H](O)[C@@H](O)[C@@H]1O [N-(2-methyl-1-oxo-1-(piperazin-1-yl)propan-2-yl)-4-(4-(2-methyl-5-((2S,3R,4R,5S,6R)-3,4,5-trihydroxy-6-(methylthio)tetrahydro-2H-pyran-2-yl)benzyl)phenyl)butanamide]
16 | < 10 nM | < 100 nM | CS[C@H]1O[C@@H](c2ccc(Cl)c(Cc3ccc(OCCNC(=O)OC(C)(C)C)cc3)c2)[C@H](O)[C@@H](O)[C@@H]1O [tert-butyl (2-(4-(2-chloro-5-((2S,3R,4R,5S,6R)-3,4,5-trihydroxy-6-(methylthio)tetrahydro-2H-pyran-2-yl)benzyl)phenoxy)ethyl)carbamate]
17 | < 10 nM | < 100 nM | CS[C@H]1O[C@@H](c2ccc(C)c(Cc3ccc(OCCCC(=O)NC(C)(C)C(=O)N(C)CCN(C)C)cc3)c2)[C@H](O)[C@@H](O)[C@@H]1O [N-(1-((2-(dimethylamino)ethyl)(methyl)amino)-2-methyl-1-oxopropan-2-yl)-4-(4-(2-methyl-5-((2S,3R,4R,5S,6R)-3,4,5-trihydroxy-6-(methylthio)tetrahydro-2H-pyran-2-yl)benzyl)phenoxy)butanamide]
